In PubChem BioAssay (NCI) one finds GI50 and TGI data, which are given here for twelve compounds.

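Step 1: Grow cells in 96-well plates. Step 2: Expose to compound for 48 hours at 5 concentrations. Step 3: Interpolate endpoints linearly; if unreached, use highest concentration. GI50 is the concentration that inhibits growth by half. TGI denotes the concentration required for complete inhibition of growth.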 A value given as a limit tells only on which side of the number the result lay.

Among the test systems are COLO 205 colon; NCI-H23 lung; OVCAR-3 ovarian; CCRF-CEM leukemia; IGROV1 ovarian; HOP-62 NSCLC; SF-295 CNS; NCI-H522 lung; SK-OV-3 ovarian; SF-539 CNS.
What all share (assay): NCI-60 cell line screen, 48 h

For the compound `COc1ccc2c(c1)N(CCO)C1=C(C(=O)OC1)C2c1ccccc1` (stereo unspecified), the GI50 in the experiment on COLO 205 colon was 1.8 µM; in the experiment on NCI-H23 lung, 1.94 µM; in the experiment with OVCAR-3 ovarian, 1.18 µM; in the experiment on CCRF-CEM leukemia, 1.91 µM; with IGROV1 ovarian, 2.41 µM; in the experiment with HOP-62 NSCLC it was 2.18 µM. Further, the GI50 in the experiment on SF-295 CNS is 0.888 µM; with NCI-H522 lung, 0.746 µM; in the experiment on SK-OV-3 ovarian, 1.9 µM. Further, the TGI is 4.85 µM in the experiment on COLO 205 colon; above 50 µM in the experiment on NCI-H23 lung; 2.47 µM with OVCAR-3 ovarian; above 50 µM in the experiment with CCRF-CEM leukemia; above 50 µM in the experiment on IGROV1 ovarian; above 50 µM with HOP-62 NSCLC. In addition, the TGI is 2.73 µM with SF-295 CNS, 3.33 µM with NCI-H522 lung and above 50 µM in the experiment with SK-OV-3 ovarian.
In the case of `CC(O[Si](c1ccccc1)(c1ccccc1)C(C)(C)C)[C@H](NC(=O)OC(C)(C)C)C(=O)O` (stereo partly specified), the TGI is 46.1 µM in the experiment with COLO 205 colon; above 100 µM in the experiment with NCI-H23 lung; above 100 µM in the experiment with CCRF-CEM leukemia; 50.2 µM in the experiment with IGROV1 ovarian; above 100 µM in the experiment on HOP-62 NSCLC; above 100 µM in the experiment with SF-295 CNS. Also, the TGI with SK-OV-3 ovarian is above 100 µM.
For the compound `CCCN1C(=O)/C(=C/c2ccc(O)cc2)SC1=Nc1ccc(OC)cc1`, the GI50 in the experiment with SF-539 CNS was 16.2 µM; in the experiment on COLO 205 colon, 36.6 µM; in the experiment on NCI-H23 lung, 16.2 µM; in the experiment on OVCAR-3 ovarian it was 17.3 µM; in the experiment on IGROV1 ovarian it was 30 µM; with HOP-62 NSCLC it was 28 µM. Moreover, the GI50 is 14.7 µM in the experiment on SF-295 CNS, 39.9 µM in the experiment with NCI-H522 lung and 18.1 µM in the experiment with SK-OV-3 ovarian. In addition, the TGI with SF-539 CNS is 33.1 µM; in the experiment on COLO 205 colon it was above 100 µM; in the experiment with NCI-H23 lung, 32.4 µM; in the experiment on OVCAR-3 ovarian, 42.8 µM; in the experiment on IGROV1 ovarian, above 100 µM; in the experiment on HOP-62 NSCLC, 80 µM. For the same compound, the TGI in the experiment with SF-295 CNS is 34.9 µM; with NCI-H522 lung, above 100 µM; in the experiment with SK-OV-3 ovarian, 41.9 µM.
Turning to `Cc1ccc(NC(=O)CC/C(CC(=O)C(C)(C)C)=N\Nc2ccc([N+](=O)[O-])cc2[N+](=O)[O-])cc1C`, the TGI is above 100 µM in the experiment on SF-539 CNS; above 100 µM in the experiment with COLO 205 colon; above 100 µM with NCI-H23 lung; 98 µM in the experiment with CCRF-CEM leukemia; above 100 µM with IGROV1 ovarian; 61.9 µM with HOP-62 NSCLC. The TGI in the experiment with SF-295 CNS and in the experiment with SK-OV-3 ovarian was above 100 µM in each case.
Consider `O=C(O)CCSC(=S)Nc1cccc(F)c1`, for which the TGI in the experiment on SF-539 CNS was above 100 µM; with COLO 205 colon, above 100 µM; in the experiment on NCI-H23 lung, above 100 µM; with OVCAR-3 ovarian, above 100 µM; in the experiment on IGROV1 ovarian, 80.9 µM; in the experiment on HOP-62 NSCLC it was above 100 µM. In addition, the TGI in the experiment with SF-295 CNS and in the experiment with SK-OV-3 ovarian was above 100 µM throughout.
On to `O=C(O)CCSC(=O)Nc1ccccc1Cl`, for which the TGI with SF-539 CNS, in the experiment with COLO 205 colon, with NCI-H23 lung, with OVCAR-3 ovarian, in the experiment on CCRF-CEM leukemia and with IGROV1 ovarian was above 100 µM each time. In addition, the TGI in the experiment on HOP-62 NSCLC, with SF-295 CNS and in the experiment on SK-OV-3 ovarian was above 100 µM each time.
For `CCCCCCN(C)Cc1ccc(OCCOc2ccc(CN(C)CCCCCC)cc2)cc1`, the GI50 with SF-539 CNS is 1.37 µM; with COLO 205 colon it was 0.659 µM; in the experiment on NCI-H23 lung, 1.52 µM; in the experiment with OVCAR-3 ovarian it was 1.36 µM; in the experiment with IGROV1 ovarian it was 1.33 µM; in the experiment on HOP-62 NSCLC, 1.48 µM. Also, the GI50 with SF-295 CNS was 1.23 µM; with NCI-H522 lung it was 0.944 µM; with SK-OV-3 ovarian, 1.64 µM. Besides, the TGI in the experiment with SF-539 CNS was found to be 2.92 µM; in the experiment with COLO 205 colon, 2.19 µM; in the experiment on NCI-H23 lung it was 3.42 µM; in the experiment with OVCAR-3 ovarian, 2.91 µM; with IGROV1 ovarian it was 3.13 µM; with HOP-62 NSCLC it was 3.15 µM. The values for the TGI in the experiment with SF-295 CNS, in the experiment with NCI-H522 lung and in the experiment with SK-OV-3 ovarian were 2.76 µM, 2.25 µM and 3.09 µM, respectively.
With `CC1=C2[C@H](c3ccccc3)C3C=CC2(c2ccccc23)N(C(=O)C(c2ccccc2)c2ccccc2)C1=O` (stereo partly specified), the TGI in the experiment on SF-539 CNS, in the experiment on COLO 205 colon, in the experiment on NCI-H23 lung, in the experiment on OVCAR-3 ovarian, in the experiment on CCRF-CEM leukemia and in the experiment on IGROV1 ovarian was above 100 µM in each case. In addition, the TGI in the experiment on HOP-62 NSCLC, with SF-295 CNS and in the experiment with SK-OV-3 ovarian was above 100 µM each time.
`Cn1nc(-c2ccccc2)c(C(=O)/C=C/c2ccc(F)cc2)c(N2CCOCC2)c1=O`: the TGI in the experiment with SF-539 CNS came to 36.3 µM; in the experiment with COLO 205 colon, 34.6 µM; with CCRF-CEM leukemia, 49.2 µM; in the experiment on IGROV1 ovarian, 39.3 µM; with SF-295 CNS it was 32.4 µM; with NCI-H522 lung, 36.4 µM. The compound also returned a TGI with SK-OV-3 ovarian above 100 µM.
As to `CCCCCCCCCOC(=S)NCCCCC`, the TGI with SF-539 CNS was 41.3 µM; with NCI-H23 lung, 68.3 µM; in the experiment with CCRF-CEM leukemia it was 63.4 µM; with IGROV1 ovarian it was above 100 µM; with HOP-62 NSCLC it was 80.9 µM; with SF-295 CNS, above 100 µM. Besides, the TGI was 46.6 µM in the experiment with NCI-H522 lung and 87.7 µM in the experiment with SK-OV-3 ovarian.
Turning to `CCCCCCCCCCCCCC(=O)OCC1OC(n2cc(F)c(=O)[nH]c2=O)C(N)C(OC(=O)CCCCCCCCCCCCC)C1O` (stereo unspecified), the TGI in the experiment on SF-539 CNS, with COLO 205 colon, in the experiment on NCI-H23 lung, in the experiment on OVCAR-3 ovarian, in the experiment on HOP-62 NSCLC and in the experiment on SF-295 CNS was above 100 µM in each case. Also, the TGI in the experiment with NCI-H522 lung and in the experiment on SK-OV-3 ovarian was above 100 µM in each case.
Take `COc1cc(/C=C\c2cc(/C=C\c3ccc(O)c(OC)c3)n(C(=O)CNc3ccc(Cl)cc3)n2)ccc1O`: the GI50 in the experiment on COLO 205 colon is 4.87 µM; in the experiment on NCI-H23 lung it was 3.35 µM; in the experiment on OVCAR-3 ovarian, 2.46 µM; with CCRF-CEM leukemia, 1.49 µM; in the experiment on IGROV1 ovarian, 2.84 µM; with HOP-62 NSCLC, 4.14 µM. The GI50 is 6.07 µM in the experiment on SF-295 CNS, 1.51 µM in the experiment on NCI-H522 lung and 3.65 µM with SK-OV-3 ovarian. Also, the TGI with COLO 205 colon was found to be 18.3 µM; in the experiment on NCI-H23 lung it was 15.8 µM; in the experiment with OVCAR-3 ovarian it was 8.11 µM; with CCRF-CEM leukemia, 5.45 µM; in the experiment on IGROV1 ovarian it was 14.3 µM; in the experiment on HOP-62 NSCLC, 16.7 µM. In addition, the TGI in the experiment with SF-295 CNS came to 20.1 µM; with NCI-H522 lung it was 5.06 µM; in the experiment on SK-OV-3 ovarian, 13 µM.
